Tested on: AML MV4-11 cells
Assay: siRNA uptake in AML MV4-11 cells by imaging flow cytometry
Format: cell-based
Protocol: AML MV4-11 cells in growth medium (RPMI 1640 with 10% FBS) were incubated with Duplex-27 (500 nM) for 1 hour at 37° C. For determining VLA-4 independent binding, 140 (10 μM) was included in one condition to block VLA-4 dependent binding. After incubation, the cells were then washed twice with D-PBS and fixed in 1% paraformaldehyde for 10 minutes. The uptake of siRNA was analyzed by imaging flow cytometry using ImageStreamx (Aminis Corporation, Seattle).

SMILES: Cc1cccc(Cl)c1C(=O)N[C@@H](Cc1ccc(NC(=O)c2c(Cl)cccc2Cl)cc1)C(=O)O [Example 140]
- Mean Cy3 intensity (140 alone at 10 μM, 1 hour at 37° C.): 663
- effect on the histograph shift of the VLA-4-targeted siRNA duplex (VLA-4 antagonist 140 present): this shift is oblated

Source: patent publication US9447035B2, “Integrin antagonist conjugates for targeted delivery to cells expressing VLA-4” (Hoffmann-La Roche Inc., priority 2012, dated 2016)
